Legend:
Type in all cases: cell-based
[1] = tested on: monocytes in WB; assay: IL-6 secretion in citrated human whole blood (screening for inflammatory and anti-inflammatory potential); conditions: for LPS induced IL-6 production, variant compared to the unsubstituted peptide: in the presence of LPS, FIG. 7; for PGN induced IL-6 production, variant compared to the unsubstituted peptide: FIG. 8; for effect on LPS induced IL-6 secretion: 100 ng/ml LPS, FIG. 2; for effect on PCW induced IL-6 secretion: PCW 50 μg/ml from Staphylococcus aureus, FIG. 4; for IL-6 secretion in the absence of bacterial components: no bacterial component, peptide 0.09, 0.18, 0.36 and 0.71 mg/ml blood, FIG. 1
Text: Human whole blood (WB) contains besides red cells, platelets and plasma the white blood cells including the neutrophils and monocytes. Neutrophils and monocytes have receptors for bacterial products such as LPS, PGN and LTA. The bacterial products react directly or via specific binding proteins to receptors on the monocytes thereby stimulating them to secrete and release inflammatory cytokines comprising, but not limited to IL-1, IL-6, and TNF-α.
In the example to be described LPS from the E. coli is used to stimulate the monocytes in WB (anti-coagulated by use of citrate) and the activity is measured by subsequently quantifying IL-6 in plasma separated from WB. The activity of HBP, HBP derived peptides and analogues hereof are evaluated by their ability to: • 1. increase IL-6 secretion in absence of bacterial products • 2. increase IL-6 secretion in presence of bacterial products • 3. decrease IL-6 secretion in presence of bacterial products • 4. inhibit amplification of cytokine secretion induced by intact HBP
All operations must be carried out in LAF cabinet by observance of stringent aseptic techniques. All test tubes, pipette tips etc. must be pyrogen-free. Buffers must be prepared by use of sterile, […], preferably water for injection. Use 0.1% pyrogen-free BSA/PBS for all dilutions.
Add 20 μl of HBP derived peptide (in concentrations from 25 to 2500 μM) to 100 μl freshly drawn (less than 4 hours old) citrate whole blood from a healthy human volunteer. Add 20 μl bacterial component (LPS, LTA or PGN) in concentrations from 5 to 5000 ng/ml, preferably 50 to 500 ng/ml. Mix well and incubate for 16-18 hours in an atmosphere of 5% carbon dioxide and at least 95% relative humidity. At the end of the incubation add at least 5 volumes (700 μl) 0.1% BSA/PBS. Mix well. Centrifuge 10 min. at 10.000 g. Aspirate 500 μl supernatant. Determine the level of IL-6 by a specific human immune assay for human IL-6 with sensitivity of at least 3 pg/ml, e.g. Human IL-6 Kit from RnD Systems (cat. no. D 6050).
Negative controls: 100 μl WB plus 40 μl 0.1% BSA/PBS. Positive control: 100 μl WB plus 20 μl LPS (same concentration as used for testing the peptide) and 20 μl 0.1% BSA/PBS.
The human (h20-44) and porcine (p20-44) peptides were synthesized and tested in the screening assay described in Example 1. The following parameters were examined: (a) abililty to induce inflammation on their own (i.e. in the absence of any bacterial component), (b) ability to amplify or inhibit inflammation induced by a bacterial component, such as LPS from the Gram negative bacteria E. coli and PGN or Purified Cell Wall (PCW) from a Gram positive bacteria. As measure for immune stimulation secretion of the release of IL-6 in citrated whole blood was used. The peptides were tested in the concentrations 0.09, 0.18, 0.36 and 0.71 mg/ml blood. […]

[2] = tested on: monocytes in WB; assay: as above; conditions: 250 μg/ml PGN from S. aureus
[3] = tested on: Human Neutrophils (PMNs); assay: Apoptosis of isolated human neutrophils, TUNEL assay with flow cytometry; conditions: 25 μg HBP per ml sample; 24 h culture; control about 70%
Description: The screening for anti-apoptotic peptides is carried out essentially as described by Shrotri M S. et al., 2000.
Peripheral blood from normal volunteers was collected and PMNs were separated by density gradient using Ficoll-Hypaque (Sigma Chemical Co.). PMNs obtained were divided into 1-ml samples with […] and were treated and analyzed as per the protocols described below.
Cell pellets were obtained by centrifugation at 300 g and fixed with 1% paraformaldehyde for 15 min at 4° C. Cells were washed twice and permeabilized with 70% ice-cold ethanol and stored at […]. Cells samples were washed twice and stained by the terminal dUTP nick-end labeling (TUNEL) assay using the APO-BRDU kit (Phoenix Flow Systems, San Diego, Calif.), following the manufacturer's instructions. Briefly, in this assay, the enzyme terminal deoxynucleotidyl transferase (TdT) catalyzes the addition of nucleotides to DNA strand breaks in the apoptotic cells, which are subsequently labeled with fluorescein isothiocyanate (FITC)-conjugated antinucleotide antibodies. The fluorescent cells are the apoptotic cells that are then identified or assessed using the flow cytometer (EPICS Elite, Beckman-Coulter, Hialeah, Fla.). These apoptotic cells were also visually confirmed by confocal microscopy (Meridian Instruments Inc., Okemos, Mich.).
Time zero group. […]

[4] = PGN 50 μg/ml from Staphylococcus aureus, peptide 0.09-0.71 mg/ml blood, FIG. 3

## pHBP 20-44 acetylated and amidated at the N- and C-terminal amino acids: pHBP 20-44 acetylated and amidated at the N- and C-terminal amino acids, respectively (Ac-KQGRPFCAGALVHPRFVLTAASCFR-NH2; cysteine pairing not given here; UniProt P80015 46-70, looked up, fragment)
[1]
  LPS induced IL-6 production, variant compared to the unsubstituted peptide: more inhibitory
[1]; in the presence of PGN
  PGN induced IL-6 production, variant compared to the unsubstituted peptide: more inhibitory

## KQGRPFCAGALVHPRFVLTAASCFQ (Peptide fragment amino acid residues 20-44 of pHBP with mutation R44Q) [pHBP 20-44 with C-terminal amino acid residue replaced with the human C-terminal residue]
[1]
  LPS induced IL-6 production, variant compared to the unsubstituted peptide: the same pattern was observed
[1]; in the presence of PGN
  PGN induced IL-6 production, variant compared to the unsubstituted peptide: the same pattern was observed

## NQGRPFCAGALVHPRFVLTAASCFR (Peptide fragment amino acid residues 20-44 of pHBP with mutation K20N) [pHBP 20-44 whose N-terminal amino acid residue was substituted with the human N-terminal residue]
[1]
  LPS induced IL-6 production, variant compared to the unsubstituted peptide: less inhibitory
[1]; in the presence of PGN
  PGN induced IL-6 production, variant compared to the unsubstituted peptide: less inhibitory

## KQGRHFCGGALIHARFVMTAASCFR (Peptide fragment amino acid residues 20-44 of hHBP with mutations N20K,Q44R) [hHBP 20-44 with both N- and C-terminal residues substituted with the corresponding porcine residues]
[1]
  LPS induced IL-6 production, variant compared to the unsubstituted peptide: nearly non-stimulating
[1]; in the presence of PGN
  PGN induced IL-6 production, variant compared to the unsubstituted peptide: inhibitory

## KQGRPFCAGALVHPQFVLTAASCFR (Peptide fragment amino acid residues 20-44 of pHBP with mutation R34Q) [R34Q pHBP 20-44, substitution of arginine to glutamine in position 34 of pHBP 20-44]
[1]; in the presence of PGN, FIG. 6
  effect on PGN induced IL-6 secretion: completely abolished the inhibitory effect

## hHBP 20-44 acetylated at the N-terminal amino group and amidated at the C-terminal carboxyl group: hHBP 20-44 acetylated at the N-terminal amino group and amidated at the C-terminal carboxyl group (Ac-NQGRHFCGGALIHARFVMTAASCFQ-NH2; cysteine pairing not given here; UniProt P20160 46-70, looked up, fragment)
[2]; FIG. 5 compared to FIG. 2
  fold stimulation of the PGN mediated IL-6 production: more than ten fold stimulation
[2]; normalized to PGN alone, FIG. 5
  effect on PGN induced IL-6 secretion: stimulated the IL-6 secretion in a dose dependant way

## KQGRPFCAGALVHPRFVLTAASCFR (Peptide fragment amino acid residues 20-44 of pHBP) [porcine HBP 20-44]
[1]; peptide 0.09-0.71 mg/ml blood
  effect on LPS induced IL-6 secretion: significantly and dose-dependently inhibited
  effect on PCW induced IL-6 secretion: significantly and dose-dependently inhibited
[1]; [4]
  effect on PGN induced IL-6 secretion: significantly and dose-dependently inhibited
[1]
  IL-6 secretion in the absence of bacterial components: no significant or dose-dependent effect

## NQGRHFCGGALIHARFVMTAASCFQ [human HBP 20-44]
[1]; 100 ng/ml LPS alone plus 0.71 mg/ml peptide alone
  sum of the IL-6 secretion induced by LPS and peptide individually: 14,178 pg/ml
[1]; 100 ng/ml LPS plus 0.71 mg/ml peptide
  IL-6 secretion, peptide and LPS together: 12,130 pg/ml
[1]; 0.71 mg/ml peptide
  effect on LPS induced IL-6 secretion: increased IL-6 secretion significantly
[1]; up to 0.36 mg/ml peptide
  effect on LPS induced IL-6 secretion: did not significantly increase
[1]; peptide 0.09-0.71 mg/ml blood
  effect on PCW induced IL-6 secretion: increased IL-6 secretion in dose-dependent way
[1]; [4]
  effect on PGN induced IL-6 secretion: increased IL-6 secretion in dose-dependent way
[1]
  IL-6 secretion in the absence of bacterial components: significant and dose-dependent increase

B1: HBP: heparin-binding protein (HBP), isolated from azurophile granules of human PMNs; also termed CAP37, azurocidin (protein, listed as Homo sapiens)
chain: IVGGRKARPRQFPFLASIQNQGRHFCGGALIHARFVMTAASCFQSQNPGVSTVVLGAYDLRRRERQSRQTFSISSMSENGYDPQQNLNDLMLLQLDREANLTSSVTILPLPLQNATVEAGTRCQVAGWGSQRSGGRLSRFPRFVNVTVTPEDQCRPNNVCTGVLTRRGGICNGDGGTPLVCEGLAHGVASFSLGPCGRGPDFFTRVALFRDWIDGVLNNPGPGPA
[1]
  amplification of cytokine secretion induced by bacterial products: at least three-fold amplification
[1]; no bacterial product
  cytokine secretion by HBP in itself: no measurable effect
[3]
  apoptosis: ~45%
